Assay results: patent US10034886B2, “GLP-1 receptor modulators” (Celgene International II SÀRL, priority 2014, dated 2018)
Where two headings read alike, the source gives them in different places.

Target: T1, GLP-1R (Homo sapiens, UniProt P43220)
T1 construct: host or cells: GLP-1R CRE-bla CHO-K1 cells
Test: EC20 GLP-1(9-36) PAM cAMP assay: dose response of compound in the presence of fixed concentration of GLP-1(9-36)
Format: cell-based
Conditions: GLP-1R CRE-bla CHO-K1 cells, read-out: EC20 GLP-1(9-36) PAM EC50
In short: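 GLP-1R CRE-bla CHO-K1 cells treated 30 min at 37 °C with 12-point compound dose response plus fixed EC20 GLP-1(9-36), with IBMX, in HBSS/HEPES/0.1% BSA pH 7.4. Total cAMP measured by luminescent detection against standard curve; EC50 and Emax from non-linear regression.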

[1] = dose response of compound in presence of fixed concentration of GLP-1(9-36)
[2] = compound dose response with fixed concentration of GLP-1(9-36)

T1 sequence (P43220 24-463): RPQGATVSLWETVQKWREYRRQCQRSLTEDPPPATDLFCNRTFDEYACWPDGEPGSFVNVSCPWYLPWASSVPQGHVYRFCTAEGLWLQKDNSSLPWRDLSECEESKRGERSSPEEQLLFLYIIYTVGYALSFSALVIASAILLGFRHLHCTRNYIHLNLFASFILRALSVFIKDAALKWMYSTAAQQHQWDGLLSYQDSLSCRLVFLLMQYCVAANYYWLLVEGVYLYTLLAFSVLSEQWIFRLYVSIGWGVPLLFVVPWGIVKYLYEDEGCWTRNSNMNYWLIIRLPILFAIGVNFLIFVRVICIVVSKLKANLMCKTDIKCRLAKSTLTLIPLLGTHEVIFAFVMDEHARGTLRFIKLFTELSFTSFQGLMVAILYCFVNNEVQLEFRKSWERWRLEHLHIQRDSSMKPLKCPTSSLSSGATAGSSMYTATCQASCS
T1 sequence (P01275 100-127 partner limits assumed): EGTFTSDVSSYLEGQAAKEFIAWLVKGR

| SMILES | EC50 [1] [nM] | EC50 [2] [nM] |
| --- | --- | --- |
| CCCCCCCOc1ccc(-c2cnc(-c3ccc(C[C@H](NC(=O)c4ccc(C(C)(C)C)s4)C(=O)N[C@@H](Cc4cccnc4)C(=O)O)cc3)nc2)cc1 [Compound 616] | 800 to 2500 | – |
| CCCCCCCOc1ccc(-c2cnc(-c3ccc(C[C@H](NC(=O)c4ccc(C(C)(C)C)s4)C(=O)N[C@H](C(=O)O)C4CC4)cc3)nc2)cc1 [Compound 405] | < 800 | – |
| CCOc1ccc(C2CCN(c3cnc(-c4ccc(CC(NC(=O)c5ccc(C(C)(C)C)s5)C(=O)N5CC(C(=O)O)C5)cc4)nc3)CC2)cc1 (centres unmarked) [Compound 1490] | – | 800 to 2500 |
| CN(CCC(C)(O)c1cccc(OC(F)(F)F)c1)c1cnc(-c2ccc(CC(NC(=O)c3ccc(C(C)(C)C)s3)C(=O)N3CC(C(=O)O)C3)cc2)nc1 (centres unmarked) [Compound 1485] | – | < 800 |
| CCc1ccc(/C=C/c2cnc(-c3ccc(C[C@H](NC(=O)c4ccc(C(C)(C)C)s4)C(=O)N4CC[C@H](C(=O)O)C4)cc3)nc2)cc1 [Compound 1086] | 800 to 2500 | – |
| CCCCCCCOc1ccc(-c2cnc(-c3ccc(C[C@H](NC(=O)c4ccc(C(C)(C)CC)cc4)C(=O)N[C@H](C)C(=O)O)cc3)nc2)cc1 [Compound 834] | 800 to 2500 | – |
| CC[C@H]1CC[C@H](c2ccc(-c3cnc(-c4ccc(C[C@H](NC(=O)c5ccc(C(C)(C)C)s5)C(=O)N[C@@H](CO)C(=O)O)cc4)nc3)cc2)CC1 [Compound 1326] | – | < 800 |
| CCc1ccc(-c2ccc(-c3cnc(-c4ccc(C[C@H](NC(=O)c5ccc(C(C)(C)C)s5)C(=O)N[C@H](C)C(=O)O)cc4)nc3)c(F)c2)cc1 [Compound 1173] | < 800 | – |
| CC(C)(C)c1ccc(C(=O)N[C@@H](Cc2ccc(-c3ncc(-c4ccc(OC5CCCC5)cc4)cn3)cc2)C(=O)NC(C(=O)O)C(O)c2ccccc2)s1 (some centres unmarked) [Compound 929] | 5000 to 10000 | – |
| CCCCCCCOc1ccc(-c2cnc(-c3ccc(C[C@H](NC(=O)c4ccc(C(C)(C)C)cc4)C(=O)NC(C(=O)O)c4cccnc4)cc3)nc2)cc1 (some centres unmarked) [Compound 468] | < 800 | – |
| CCCCCCCOc1ccc(-c2cnc(-c3ccc(C[C@H](NC(=O)c4ccc(C(C)(C)C)s4)C(=O)NCCNC(C)=O)cc3)nc2)cc1 [Compound 389] | 800 to 2500 | – |
| CC[C@H]1CC[C@H](c2ccc(-c3cnc(-c4ccc(C[C@H](NC(=O)c5ccc(C(F)(F)F)cc5)C(=O)O)cc4)nc3)cc2)CC1 [Compound 1374] | – | 800 to 2500 |
| CCCCCCCOc1ccc(-c2cnc(-c3ccc(C[C@H](NC(=O)c4ccc(C(C)(C)C)s4)C(=O)N4CC(F)(C(=O)O)C4)cc3)nc2)cc1 [Compound 878] | < 800 | – |
| CCC[C@H]1CC[C@H](C2CCN(c3cnc(-c4ccc(C[C@H](NC(=O)c5ccc(C(C)(C)C)s5)C(=O)NC5(C(=O)O)CC5)cc4)nc3)CC2)CC1 [Compound 1453] | – | < 800 |
| CCc1ccc(C2CN(c3cnc(-c4ccc(CC(NC(=O)c5ccc(C(C)(C)C)s5)C(=O)N5CC(C(=O)O)C5)cc4)nc3)C2)cc1 (centres unmarked) [Compound 1418] | – | 5000 to 10000 |
| CCCCCCCOc1ccc(-c2cnc(-c3ccc(C[C@H](NC(=O)c4ccc(C(C)(C)C)cc4)C(=O)NCC(C(=O)O)c4ccccc4)cc3)nc2)cc1 (some centres unmarked) [Compound 556] | < 800 | – |
| CCC[C@H]1CC[C@H](C2CCN(c3cnc(-c4ccc(C[C@H](NC(=O)c5ccc(C(C)(C)C)s5)C(=O)NC(C(=O)O)c5ccco5)cc4)nc3)CC2)CC1 (some centres unmarked) [Compound 1454] | – | < 800 |
| CCCCCCCOc1ccc(-c2cnc(-c3ccc(C[C@H](NC(=O)c4ccc(C(C)(C)C)s4)C(=O)N4CCC(C)(N)C4)cc3)nc2)cc1 (some centres unmarked) [Compound 988] | 5000 to 10000 | – |
| COCCc1ccc(C2CCN(c3cnc(-c4ccc(C[C@H](NC(=O)c5ccc(C(C)(C)C)s5)C(=O)N5CC(C(=O)O)C5)cc4)nc3)CC2)cc1 [Compound 1495] | – | 800 to 2500 |
| CCCCCCCOc1ccc(-c2cnc(-c3ccc(C[C@H](NC(=O)c4ccc(C(C)(C)C)cc4)C(=O)NCC(Cc4ccc(O)cc4)C(=O)O)cc3)nc2)cc1 (some centres unmarked) [Compound 558] | < 800 | – |
| CCCCCCCOc1ccc(-c2cnc(-c3ccc(C[C@H](NC(=O)c4ccc(C(C)(C)C)cc4)C(=O)NCC(Cc4cccnc4)C(=O)O)cc3)nc2)cc1 (some centres unmarked) [Compound 557] | < 800 | – |
| CC(C)(C)c1ccc(C(=O)N[C@@H](Cc2ccc(-c3ncc(-c4ccc(OCC5CC5)cc4)cn3)cc2)C(=O)NCCC(=O)O)cc1 [Compound 684] | 5000 to 10000 | – |
| CCCCCCCOc1ccc(-c2cnc(-c3ccc(C[C@H](NC(=O)c4ccc(C(C)(C)C)s4)C(=O)NC(C(=O)O)C(O)C4CCCO4)cc3)nc2)cc1 (some centres unmarked) [Compound 916] | 800 to 2500 | – |
| CC[C@H]1CC[C@H](c2ccc(-c3cnc(-c4ccc(C[C@H](NC(=O)c5ccc(C(C)(C)C#N)s5)C(=O)O)cc4)nc3)cc2)CC1 [Compound 1373] | – | < 800 |
| Cc1ccc(/C=C/c2cnc(-c3ccc(C[C@H](NC(=O)c4ccc(C(C)(C)C)s4)C(=O)N4CCC[C@H]4C(=O)O)cc3)nc2)cc1 [Compound 1125] | 800 to 2500 | – |
| CCCCCCCOc1ccc(-c2cnc(-c3ccc(C[C@H](NC(=O)c4ccc(C(C)(C)C)s4)C(=O)NC[C@H]4CCCN4C)cc3)nc2)cc1 [Compound 973] | 5000 to 10000 | – |
